Several values for one entry are separate records, joined by “and”; a condition that tells them apart may be missing. Identical values can stand only once.
Molecular target: human IDO1 (Homo sapiens, UniProt P14902)
Test: Assessment of human IDO-1 inhibitory activity in Hela cells (Interferon-gamma stimulated HeLa cells, Ehrlich reagent, absorbance 490 nm)
Assay type: cell-based
Design: endogenous in cells; host or cells: HeLa cells stimulated with interferon-gamma
Conditions: Hela Human IDO-1 cellular assay
In short: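 HeLa cells pre-incubated with compound 1 h at 37 °C, then stimulated with human IFN-γ (10 ng/ml final) or murine IFN-γ (5 ng/ml final) for 18 h. Kynurenine read with Ehrlich reagent at 490 nm after TCA (3%) and 50 °C treatment; IC50 normalized to unstimulated (100%) and IFN-γ-only (0%) wells.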

Sequence of human IDO1 (P14902 whole entry): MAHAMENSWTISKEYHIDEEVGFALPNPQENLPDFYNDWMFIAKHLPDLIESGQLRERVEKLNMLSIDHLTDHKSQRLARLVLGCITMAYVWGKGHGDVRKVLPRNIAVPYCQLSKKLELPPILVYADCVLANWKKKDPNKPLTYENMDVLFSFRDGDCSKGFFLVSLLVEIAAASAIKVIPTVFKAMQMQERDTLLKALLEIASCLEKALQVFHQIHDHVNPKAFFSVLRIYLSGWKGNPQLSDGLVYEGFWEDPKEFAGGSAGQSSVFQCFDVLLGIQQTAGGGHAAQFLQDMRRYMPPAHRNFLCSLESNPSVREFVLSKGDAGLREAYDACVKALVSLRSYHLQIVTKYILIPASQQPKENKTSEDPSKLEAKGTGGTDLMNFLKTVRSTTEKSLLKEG

| SMILES | IC50 |
| --- | --- |
| C[C@@H]1CN(c2ccc(C(CC(=O)O)C3CC3)cc2Nc2ccc(C#N)cc2)C[C@H](C)O1 (single isomer, unassigned) [Example 243] | < 50 nM |
| CCN(c1ccc([C@H](COC)CC(=O)O)cc1Nc1ccc(C(F)(F)F)cc1)C1CCOCC1 [Example 401] | < 5 nM |
| CCN(c1ccc(C(C)(C)CC(=O)O)cc1Nc1ccc2c(c1)OC(F)(F)O2)C1CCS(=O)(=O)CC1 [Example 179, 3-(3-((2,2-difluorobenzo[d][1,3]dioxol-5-yl)amino)-4-((1,1-dioxidotetrahydro-2H-thiopyran-4-yl)(ethyl)amino)phenyl)-3-methylbutanoic acid] | < 5 nM |
| CCCN(c1ccc(C(C)(C)CC(=O)O)cc1Nc1cnc(OCC)nc1)C1CCOCC1 [Example 24, 3-(3-((2-ethoxypyrimidin-5-yl)amino)-4-(propyl(tetrahydro-2H-pyran-4-yl)amino)phenyl)-3-methylbutanoic acid] | < 50 nM |
| CCC(CC(=O)O)c1cc(Nc2ccc(Cl)cc2)c(N(CC)C2CCOCC2)cc1F (single isomer, unassigned) [Example 856, 3-(5-((4-Chlorophenyl)amino)-4-(ethyl(tetrahydro-2H-pyran-4-yl)amino)-2-fluorophenyl)pentanoic acid] | < 5 nM |
| CCOc1ncc(Nc2cc([C@@H](CC(=O)O)C(F)(F)F)ccc2N(CC)C2CCOCC2)cn1 [Example 600, (R)-3-(3-((2-Ethoxypyrimidin-5-yl)amino)-4-(ethyl(tetrahydro-2H-pyran-4-yl)amino)phenyl)-4,4,4-trifluorobutanoic acid] | < 5 nM |
| CCC(CC(=O)O)c1ccc(N2CCOC(C)(C)C2)c(Nc2ccc(C#N)cc2)c1 (single isomer, unassigned) [Example 1320, 3-(3-((4-cyanophenyl)amino)-4-(2,2-dimethylmorpholino)phenyl)pentanoic acid] | > 50 nM and < 50 nM |
| CC[C@H](CC(=O)O)c1ccc(N(CC)C2CCOCC2)c(Nc2cnc(OC)cn2)c1 (single isomer, unassigned) [Example 507] | < 5 nM |
| CCC1COCCN1c1ccc([C@H](COC)CC(=O)O)cc1Nc1ccc(F)cc1 (single isomer, unassigned) [Example 1293] | > 50 nM |
| COCC(CC(=O)O)c1ccc(N(C)C2CCOCC2)c(NC(=O)Nc2ccc(Cl)cc2F)c1 (single isomer, unassigned) [Example 879, 3-(3-(3-(4-Chloro-2-fluorophenyl)ureido)-4-(methyl(tetrahydro-2H-pyran-4-yl)amino)phenyl)-4-methoxybutanoic acid] | > 50 nM |

Source: patent US9790169B2, “IDO inhibitors” (BRISTOL-MYERS SQUIBB COMPANY, priority 2015, dated 2017)
